Measurements from the OligoGym collection.
Several values for one entry are separate records, joined by “and”; a condition that tells them apart may be missing. Equal values may be shown once. After the bases stand the sugars from the 5' end (letter, count) and the backbone: PS all phosphorothioate, else s phosphorothioate and o phosphodiester by linkage. Methylation of C is not given here. e = 2'-O-(2-methoxyethyl) (MOE); k = constrained ethyl (cEt); d = 2'-deoxy (DNA)

Biological target: MALAT1
Settings: ASO, A431, 0.005 µM

Sequence	target mRNA inhibition
AGGCAAACGAAACATTGGCA (sugars e5 d10 e5, PS)	3% and 12%
AGGCAAATCGCCATGG (sugars k3 d10 k3, PS)	5%
AGGCAGTTATATTAGG (sugars k3 d10 k3, PS)	26%
AGGGACAGTAGGTATA (sugars k3 d10 k3, PS)	16%
AGGTATGACATATAAT (sugars k3 d10 k3, PS)	35%
AGTAACCTATTGACTA (sugars k3 d10 k3, PS)	-16%
AGTAAGAATCTCAGGG (sugars k3 d10 k3, PS)	45%
AGTAAGCCCCACCCCC (sugars k3 d10 k3, PS)	29%
AGTAGACCAACTAAGC (sugars k3 d10 k3, PS)	25%
AGTAGGCCAGACCAAC (sugars k3 d10 k3, PS)	4%
AGTAGGTATAGTTTAC (sugars k3 d10 k3, PS)	10%
AGTATTACTCTAATCA (sugars k3 d10 k3, PS)	23%
AGTATTATAATAGAGC (sugars k3 d10 k3, PS)	20%
AGTCCTAGCTTCATCA (sugars k3 d10 k3, PS)	27%
AGTCTACAAGTTACAT (sugars k3 d10 k3, PS)	3%
AGTGTACTATCCCATC (sugars k3 d10 k3, PS)	78% and 91%
AGTGTTTACACTGCTC (sugars k3 d10 k3, PS)	22%
AGTTACTTGCCAACTT (sugars k3 d10 k3, PS)	7%
AGTTTGTCAATAGTAC (sugars k3 d10 k3, PS)	42%
ATAACAAGTTTAAGGG (sugars k3 d10 k3, PS)	41%
ATAATAGAGCTACTTA (sugars k3 d10 k3, PS)	19%
ATACAAACTGCTTACA (sugars k3 d10 k3, PS)	-30%
ATACCCTTCTGTTAAC (sugars k3 d10 k3, PS)	2%

Sequence	target mRNA inhibition
ATAGACCCCTGACTTT (sugars k3 d10 k3, PS)	34%
ATAGAGCTACTTAGCT (sugars k3 d10 k3, PS)	19%
ATAGTTCAACCCACCA (sugars k3 d10 k3, PS)	21%
ATAGTTTACCACCTTT (sugars k3 d10 k3, PS)	39%
ATATTGCCGACCTCAC (sugars k3 d10 k3, PS)	26%
ATATTTGCCCCTCCCC (sugars k3 d10 k3, PS)	27%
ATCAAACACTGGTTCC (sugars k3 d10 k3, PS)	48%
ATCAAGTCAAGCTCCT (sugars k3 d10 k3, PS)	11%
ATCACAAATACGACTG (sugars k3 d10 k3, PS)	34%
ATCAGGTGAGGCTGAC (sugars k3 d10 k3, PS)	23%
ATCCCCCCCAAGATTG (sugars k3 d10 k3, PS)	5%
ATCCCTAACATGCAAT (sugars k3 d10 k3, PS)	23%
ATCCTACCACTCCCAA (sugars k3 d10 k3, PS)	34%
ATCCTCTACGCACAAC (sugars k3 d10 k3, PS)	42%
ATCCTGAATGGCTTCA (sugars k3 d10 k3, PS)	0%
ATCTAAAAGCATTGCC (sugars k3 d10 k3, PS)	18%
ATCTCAACCTCCGTCA (sugars k3 d10 k3, PS)	34%
ATCTGTTAACAGCTGC (sugars k3 d10 k3, PS)	71% and 76%
ATCTTAGTAACCTATT (sugars k3 d10 k3, PS)	17%
ATGCAATACTGCAGAT (sugars k3 d10 k3, PS)	1%
ATGCACTAAAGATCAC (sugars k3 d10 k3, PS)	34%
ATGCATTCTAATAGCA (sugars k3 d10 k3, PS)	-1%
ATGGACATCTCTTCCA (sugars k3 d10 k3, PS)	30%

Sequence	target mRNA inhibition
ATGGATCATGCCCACA (sugars k3 d10 k3, PS)	12%
ATTAAGAGCTGCTATA (sugars k3 d10 k3, PS)	-4%
ATTACCTAAACCCACC (sugars k3 d10 k3, PS)	-10%
ATTACTCTAATCACTG (sugars k3 d10 k3, PS)	28%
ATTACTCTTGATCTTG (sugars k3 d10 k3, PS)	71% and 56%
ATTAGTAGTCAAAGCA (sugars k3 d10 k3, PS)	20%
ATTCATGAGTATAAGC (sugars k3 d10 k3, PS)	29%
ATTCCCCAATGGAGGT (sugars k3 d10 k3, PS)	36%
ATTCGATCACCTTCCG (sugars k3 d10 k3, PS)	19%
ATTCTAATAGCAGCGG (sugars k3 d10 k3, PS)	32%
ATTGGTATTAATTCGG (sugars k3 d10 k3, PS)	70% and 75% and 92%
ATTTAAGGCCTTCCAA (sugars k3 d10 k3, PS)	30%
ATTTTAAACGGGTCAT (sugars k3 d10 k3, PS)	7%
ATTTTGTCCACTGGTG (sugars k3 d10 k3, PS)	50%
ATTTTTGAAGCATACC (sugars k3 d10 k3, PS)	41% and 57%
CAAAGACCTCGACACC (sugars k3 d10 k3, PS)	18%
CAAAGATATTGTGCTG (sugars k3 d10 k3, PS)	-10%
CAAATCGCCATGGAAA (sugars k3 d10 k3, PS)	14%
CAAATTAATGCACTGG (sugars k3 d10 k3, PS)	15%
CAACAATTTAGAGCTT (sugars k3 d10 k3, PS)	12%
CAACAGCACAGCGGTA (sugars k3 d10 k3, PS)	-5%
CAACATTTGGCCTACT (sugars k3 d10 k3, PS)	17%
CAACCCACCAAAGACC (sugars k3 d10 k3, PS)	2%

Sequence	target mRNA inhibition
CAACTCGCATCACCGG (sugars k3 d10 k3, PS)	9%
CAACTGGAAGCTCCTT (sugars k3 d10 k3, PS)	23%
CAAGACCAAACTGCAG (sugars k3 d10 k3, PS)	-28%
CAAGGCAAATCGCCAT (sugars k3 d10 k3, PS)	42%
CAATCACAAATACGAC (sugars k3 d10 k3, PS)	18%
CAATCCACTTGATCCC (sugars k3 d10 k3, PS)	56% and 44%
CAATCCCAACCGTAAC (sugars k3 d10 k3, PS)	9%
CAATCCTGAAATCCCC (sugars k3 d10 k3, PS)	16%
CACACTGGCATGCTGG (sugars k3 d10 k3, PS)	9%
CACAGCTCGGGCGAGG (sugars k3 d10 k3, PS)	25%
CACCAATCCCAACCGT (sugars k3 d10 k3, PS)	5%
CACCCAAAAGCCCTCT (sugars k3 d10 k3, PS)	17%
CACCCTCTAAGAGACA (sugars k3 d10 k3, PS)	1%
CACCTGGGTCAGCTGT (sugars k3 d10 k3, PS)	25%
CACGAACTGCTGCTTG (sugars k3 d10 k3, PS)	55%
CACGGATTTTTACCAA (sugars k3 d10 k3, PS)	19%
CACGGCCCGCACGGAA (sugars k3 d10 k3, PS)	-1%
CACTCCCAATTAATCT (sugars k3 d10 k3, PS)	8%
CACTCTGATCTGCGGC (sugars k3 d10 k3, PS)	-28%
CACTGCAAGGTCTCAT (sugars k3 d10 k3, PS)	41%
CACTTGATCCCAACTC (sugars k3 d10 k3, PS)	44%
CACTTTAGAGGCTTTT (sugars k3 d10 k3, PS)	42%
CAGAAGCCCCTGCGCT (sugars k3 d10 k3, PS)	3%

Sequence	target mRNA inhibition
CAGAGTTTGAGTGGTT (sugars k3 d10 k3, PS)	16%
CAGCACAGCGGTACAC (sugars k3 d10 k3, PS)	7%
CAGCACATCATGCTAT (sugars k3 d10 k3, PS)	15%
CAGCACGGGCTGTCTG (sugars k3 d10 k3, PS)	-33%
CAGCAGTAGGGCTTCT (sugars k3 d10 k3, PS)	-1%
CAGCCTATAAGGACAG (sugars k3 d10 k3, PS)	22%
CAGGACTTGGCAGTCT (sugars k3 d10 k3, PS)	14%
CAGGAGTGCCAACCAC (sugars k3 d10 k3, PS)	-2%
CAGGCTATTACCTGAA (sugars k3 d10 k3, PS)	-14%
CAGGGTTATGCTTATT (sugars k3 d10 k3, PS)	75% and 66%
CAGTAACATCTGATTC (sugars k3 d10 k3, PS)	57% and 78%
CAGTACTGCATTTACT (sugars k3 d10 k3, PS)	20%
CAGTAGGGCTTCTCAA (sugars k3 d10 k3, PS)	10%
CAGTAGTAAGAATCTC (sugars k3 d10 k3, PS)	54%
CATAACTGATCTGACT (sugars k3 d10 k3, PS)	-5%
CATATTGCCGACCTCA (sugars k3 d10 k3, PS)	43%
CATGAGTATAAGCCTG (sugars k3 d10 k3, PS)	50%
CATGAGTTTATCTGCA (sugars k3 d10 k3, PS)	-6%
CATGTGCCTGGAATTA (sugars k3 d10 k3, PS)	26%
CATTAAGTTGGTAATT (sugars k3 d10 k3, PS)	12%
CATTTATTTCGGCTTC (sugars k3 d10 k3, PS)	66% and 90%
CATTTGGCCTACTCAA (sugars k3 d10 k3, PS)	34%
